Reference: the NIST ThermoML archive (doi:10.1016/j.jct.2010.03.002)

Test: xn = mol fraction of the nth substance listed
Details: 101 kPa, Liquid; for viscosity: Capillary tube (Ostwald / Ubbelohde) method; for mass density: Vibrating tube method

CCCCCCn1cc[n+](C)c1.[Br-] [3-hexyl-1-methyl-1H-imidazolium bromide] + O
Details | mass density, 293.15 K [kg/m3] | mass density, 303.15 K [kg/m3] | mass density, 313.15 K [kg/m3] | mass density, 323.15 K [kg/m3] | mass density, 333.15 K [kg/m3] | viscosity, 293.15 K [mPa·s] | viscosity, 303.15 K [mPa·s] | viscosity, 313.15 K [mPa·s] | viscosity, 323.15 K [mPa·s] | viscosity, 333.15 K [mPa·s]
x2 = 0 | 1227.4 | 1220.1 | 1213.3 | 1205.7 | 1198.6 | 6936 | 2239 | 851.65 | 512.14 | 350.69
x2 = 0.1225 | 1223.4 | 1216.1 | 1209.3 | 1201.8 | 1194.6 | 3519 | 1255 | 503.66 | 302.69 | 201.69
x2 = 0.2196 | 1220.4 | 1213.2 | 1206.4 | 1198.8 | 1191.5 | 1578 | 695.45 | 320.14 | 180.56 | 115.66
x2 = 0.2978 | 1217.9 | 1210.8 | 1204 | 1196.2 | 1189 | 776.62 | 395.49 | 194.1 | 117.64 | 77.41
x2 = 0.348 | 1216.3 | 1209 | 1202.2 | 1194.6 | 1187.4 | 507.8 | 265.62 | 143.5 | 89.65 | 57.52
x2 = 0.4166 | 1213.4 | 1206.2 | 1199.5 | 1192 | 1184.8 | 313.52 | 168.31 | 97.98 | 60.85 | 40.03
x2 = 0.504 | 1208.7 | 1201.6 | 1194.9 | 1187.5 | 1180.3 | 173.73 | 98.93 | 60.18 | 38.59 | 26.69
x2 = 0.5701 | 1203.9 | 1196.8 | 1190.1 | 1182.7 | 1175.8 | 111.42 | 65.77 | 41.24 | 27.69 | 19.36
x2 = 0.6405 | 1196.9 | 1189.9 | 1183.3 | 1176 | 1169 | 70.83 | 43.45 | 28.14 | 19.39 | 14.63
x2 = 0.7285 | 1184.3 | 1177.3 | 1170.7 | 1163.5 | 1156.5 | 36.4 | 22.54 | 15.13 | 10.75 | 7.929
x2 = 0.816 | 1163.7 | 1156.9 | 1150.1 | 1142.9 | 1136.3 | 18.13 | 12.1 | 8.492 | – | 4.762
x2 = 0.9048 | 1123.6 | 1117.3 | 1110.7 | 1104.4 | 1097.6 | 6.655 | 4.764 | 3.519 | 2.744 | 2.184
x2 = 0.9241 | 1109.4 | 1103.6 | 1097 | 1090.9 | 1084.2 | 4.951 | 3.619 | 2.764 | 2.165 | 1.733
x2 = 0.944 | 1091.2 | 1085.4 | 1079.5 | 1073.6 | 1067.2 | 3.48 | 2.622 | – | 1.6 | 1.301
x2 = 0.9613 | 1070.9 | 1065.7 | 1060.4 | 1054.7 | 1048.5 | 2.438 | 1.86 | 1.469 | – | 0.982
x2 = 0.9899 | 1022.6 | 1019.2 | 1015.1 | 1010.1 | 1004.2 | 1.342 | 1.047 | 0.846 | 0.695 | 0.588
